Assay results published in patent publication US20230407243A1, “GENETIC PLATFORM TO INVESTIGATE THE FUNCTIONS OF BACTERIAL DRUG EFFLUX PUMPS” (priority 2022, published 2023).
“And” between values parts separate entries of the source, which are not always exact repeats. Equal values may be shown once. Read-outs that look alike come from different tables or passages of the source.

Columns and labels:
Assay type in all cases: cell-based, Escherichia coli
EKO-35 acrBD408A = details: for PABN MICa Alone: PAβN alone, one value per checkerboard
Method: (§1) Synergy measurement using checkerboard analysis was performed in 96-well microtiter plates using the microdilution broth method, according to CLSI guidelines (Patel J. B., 2015). The cell inocula were prepared using the colony resuspension method. The minimum inhibitory concentrations (MICs) were defined as the lowest concentration that provided no growth, as determined by measurement of the OD600nm using a Synergy H1 microplate reader (BioTek). Susceptibility testing was performed in MHB II with a final volume of 100 μL. PAI3N (Bachem Americas) was solubilized in MHB II. […] Solvent controls were included in each plate.
(§2) The Fractional Inhibitory Concentration Index (FICI) was used to assess the synergy of PAI3N in combination with different antibiotics. The FICI represents the ΣFIC of each drug. The FICI for each drug was calculated using the following formula: FICI=FICA+FICB=(CA/MICA)+(CB/MICB). Where MICA and MICB are the MICs of drugs A (PAI3N/NMP) and B (antibiotic) alone, and CA and CB are the MICs of the drugs in combination. The effects of PAβN or NMP in combination with antibiotics were classified as: synergistic (FICI<0.5), additive (FICI>0.5-1.0), indifferent (FICI>1.0-2.0), and antagonistic (FICI>2.0). Fold increases in resistance provided by efflux pumps were calculated by dividing the MIC values of strains expressing efflux pumps by the MIC value of EKO-35.

EKO-35 = details: for PABN MICa Alone: PAβN alone, one value per checkerboard
Method: as §1, §2

ΔtolC = details: for PABN MICa Alone: PAβN alone, one value per checkerboard
Method: as §1, §2

wild-type E. coli K-12 = test system: wild-type E. coli K-12
Method: as §1, §2

ΔtolC-Pore = details: for PABN MICa Alone: PAβN alone, one value per checkerboard
Method: as §1, §2

[1] = test system: EKO-35-Pore acrBD408A (functionally inactive AcrB variant); assay: Checkerboard synergy (FICI), porinated strain
Method: as §1, §2

wild-type K-12-Pore = assay: Checkerboard synergy (FICI), porinated strain; details: for PABN MICa Combined: K-12 Pore
Method: as §1, §2

[2] = test system: EKO-35 porinated strain expressing acrB; assay: Checkerboard synergy (FICI), porinated strain
Method: as §1, §2

EKO-35-Pore = assay: Checkerboard synergy (FICI), porinated strain
Method: as §1, §2

[3] = strain EKO-35 acrBD408A, NMP + antibiotic
[4] = strain EKO-35, NMP + antibiotic
[5] = strain ΔtolC Pore, NMP + antibiotic
[6] = strain EKO-35 acrBD408A Pore, NMP + antibiotic
[7] = strain EKO-35 acrB Pore, NMP + antibiotic
[8] = strain EKO-35 Pore, NMP + antibiotic

“phenylalanine-arginine-β-naphthylamide [PAβN]” was tested, and the “PABN MICa Alone” value (EKO-35 acrBD408A; EKO-35 acrBD408A) was 64 µg/mL, the “PABN MICa Alone” value (EKO-35 acrBD408A; EKO-35 acrBD408A, listed as PABN) was 128 µg/mL and the “PABN MICa Combined” value (EKO-35 acrBD408A; EKO-35 acrBD408A, with Ciprofloxacin) was 8 µg/mL. For the same molecule, the “PABN MICa Combined” value (EKO-35 acrBD408A; EKO-35 acrBD408A, with Erythromycin) was 8 µg/mL, the “PABN MICa Combined” value (EKO-35 acrBD408A; EKO-35 acrBD408A, with Fusidic Acid) was 8 µg/mL and the “PABN MICa Combined” value (EKO-35 acrBD408A; EKO-35 acrBD408A, with Linezolid) was 32 µg/mL. The “PABN MICa Combined” value (EKO-35 acrBD408A; EKO-35 acrBD408A, with Novobiocin) was 8 µg/mL, the “PABN MICa Combined” value (EKO-35 acrBD408A; EKO-35 acrBD408A, with Oxacillin) was 16 µg/mL and the “PABN MICa Alone” value (EKO-35; EKO-35) was 64 µg/mL. For the same molecule, the “PABN MICa Alone” value (EKO-35; EKO-35, listed as PABN) was 128 µg/mL, the “PABN MICa Combined” value (EKO-35; EKO-35, with Ciprofloxacin) was 4 µg/mL and the “PABN MICa Combined” value (EKO-35; EKO-35, with Erythromycin) was 8 µg/mL. For the same molecule, the “PABN MICa Combined” value (EKO-35; EKO-35, with Fusidic Acid) was 16 µg/mL, the “PABN MICa Combined” value (EKO-35; EKO-35, with Linezolid) was 32 µg/mL and the “PABN MICa Combined” value (EKO-35; EKO-35, with Novobiocin) was 8 µg/mL. The “PABN MICa Combined” value (EKO-35; EKO-35, with Oxacillin) was 4 µg/mL, the “susceptibility to the efflux pump inhibitor alone, efflux-deficient strains vs wild-type” value (EKO-35; efflux-deficient strains EKO-35, EKO-35 acrBD408A, ΔtolC) was “exhibits antibacterial activity, which is enhanced upon efflux inactivation” and the “PABN MICa Alone” value (ΔtolC; ΔtolC) was 64 µg/mL. For the same molecule, the “PABN MICa Alone” value (ΔtolC; ΔtolC, listed as PABN) was 128 µg/mL, the “PABN MICa Combined” value (ΔtolC; ΔtolC, with Ciprofloxacin) was 32 µg/mL and the “PABN MICa Combined” value (ΔtolC; ΔtolC, with Erythromycin) was 8 µg/mL. The “PABN MICa Combined” value (ΔtolC; ΔtolC, with Fusidic Acid) was 16 µg/mL, the “PABN MICa Combined” value (ΔtolC; ΔtolC, with Linezolid) was 64 µg/mL and the “PABN MICa Combined” value (ΔtolC; ΔtolC, with Novobiocin) was 16 µg/mL. The “PABN MICa Combined” value (ΔtolC; ΔtolC, with Oxacillin) was 8 µg/mL, the “PABN MICa Alone” value (wild-type E. coli K-12; K-12, PAβN alone, one value per checkerboard) was 256 µg/mL and the “PABN MICa Combined” value (wild-type E. coli K-12; K-12, with Ciprofloxacin) was 64 µg/mL. For the same molecule, the “PABN MICa Combined” value (wild-type E. coli K-12; K-12, with Erythromycin) was 16 µg/mL, the “PABN MICa Combined” value (wild-type E. coli K-12; K-12, with Fusidic Acid) was 32 µg/mL and the “PABN MICa Combined” value (wild-type E. coli K-12; K-12, with Linezolid) was 16 µg/mL. The “PABN MICa Combined” value (wild-type E. coli K-12; K-12, with Novobiocin) was 32 µg/mL, the “PABN MICa Combined” value (wild-type E. coli K-12; K-12, with Oxacillin) was 32 µg/mL and the “PABN MICa Alone” value (ΔtolC-Pore; ΔtolC Pore) was 64 µg/mL. The “PABN MICa Alone” value (ΔtolC-Pore; ΔtolC Pore, listed as PABN) was 128 µg/mL, the “PABN MICa Combined” value (ΔtolC-Pore; ΔtolC Pore, with Ciprofloxacin) was 64 µg/mL and the “PABN MICa Combined” value (ΔtolC-Pore; ΔtolC Pore, with Erythromycin) was 16 µg/mL. The “PABN MICa Combined” value (ΔtolC-Pore; ΔtolC Pore, with Fusidic Acid) was 32 µg/mL, the “PABN MICa Combined” value (ΔtolC-Pore; ΔtolC Pore, with Linezolid) was 64 µg/mL and the “PABN MICa Combined” value (ΔtolC-Pore; ΔtolC Pore, with Novobiocin) was 32 µg/mL. The “PABN MICa Combined” value (ΔtolC-Pore; ΔtolC Pore, with Oxacillin) was 64 µg/mL, the “PABN MICa Combined” value ([1]; EKO-35 acrBD408A Pore, with Ciprofloxacin) was 8 µg/mL and the “PABN MICa Combined” value ([1]; EKO-35 acrBD408A Pore, with Erythromycin) was 16 µg/mL. For the same molecule, the “PABN MICa Combined” value ([1]; EKO-35 acrBD408A Pore, with Fusidic Acid) was 8 µg/mL, the “PABN MICa Combined” value ([1]; EKO-35 acrBD408A Pore, with Linezolid) was 32 µg/mL and the “PABN MICa Combined” value ([1]; EKO-35 acrBD408A Pore, with Novobiocin) was 8 µg/mL. The “PABN MICa Combined” value ([1]; EKO-35 acrBD408A Pore, with Oxacillin) was 32 µg/mL, the “PABN MICa Combined” value (wild-type K-12-Pore; with Ciprofloxacin) was 256 µg/mL and the “PABN MICa Combined” value (wild-type K-12-Pore; with Erythromycin) was 64 µg/mL. The “PABN MICa Combined” value (wild-type K-12-Pore; with Fusidic Acid) was 32 µg/mL, the “PABN MICa Combined” value (wild-type K-12-Pore; with Linezolid) was 32 µg/mL and the “PABN MICa Combined” value (wild-type K-12-Pore; with Novobiocin) was 2 µg/mL. The “PABN MICa Combined” value (wild-type K-12-Pore; with Oxacillin) was 64 µg/mL, the “PABN MICa Combined” value ([2]; EKO-35 acrB Pore, with Erythromycin) was 16 µg/mL and the “PABN MICa Combined” value ([2]; EKO-35 acrB Pore, with Fusidic Acid) was 32 µg/mL. The “PABN MICa Combined” value ([2]; EKO-35 acrB Pore, with Linezolid) was 16 µg/mL, the “PABN MICa Combined” value ([2]; EKO-35 acrB Pore, with Novobiocin) was 16 µg/mL and the “PABN MICa Combined” value ([2]; EKO-35 acrB Pore, with Oxacillin) was 16 µg/mL. For the same molecule, the “PABN MICa Alone” value (EKO-35-Pore; EKO-35 Pore, PAβN alone, one value per checkerboard, listed as PABN) was 64 µg/mL and 32 µg/mL, the “PABN MICa Combined” value (EKO-35-Pore; EKO-35 Pore, with Ciprofloxacin) was 2 µg/mL and the “PABN MICa Combined” value (EKO-35-Pore; EKO-35 Pore, with Erythromycin) was 8 µg/mL. For the same molecule, the “PABN MICa Combined” value (EKO-35-Pore; EKO-35 Pore, with Fusidic Acid) was 16 µg/mL, the “PABN MICa Combined” value (EKO-35-Pore; EKO-35 Pore, with Linezolid) was 32 µg/mL and the “PABN MICa Combined” value (EKO-35-Pore; EKO-35 Pore, with Novobiocin) was 16 µg/mL. The “PABN MICa Combined” value (EKO-35-Pore; EKO-35 Pore, with Oxacillin) was 32 µg/mL.
With CC[n+]1c(-c2ccccc2)c2cc(N)ccc2c2ccc(N)cc21 [ethidium bromide] the FICI (EKO-35 acrBD408A; EKO-35 acrBD408A, NMP + antibiotic) was 0.750, the Effect (EKO-35 acrBD408A; [3]) was “Additive (additive (FICI >0.5-1.0))” and the FICI (EKO-35 acrBD408A; [3]) was 0.750. The “MICb Alone” value (EKO-35 acrBD408A; strain EKO-35 acrBD408A, antibiotic alone) was 0.488 µg/mL, the FICI (EKO-35; EKO-35, NMP + antibiotic) was 2.000 and the Effect (EKO-35; [4]) was “— (indifferent (FICI >1.0))”. For the same molecule, the FICI (EKO-35; [4]) was 2.000, the “MICb Alone” value (EKO-35; strain EKO-35, antibiotic alone) was 0.244 µg/mL and the “MICb Combined” value (EKO-35; strain EKO-35, antibiotic in combination with NMP) was 0.244 µg/mL. For the same molecule, the Effect (ΔtolC; strain ΔtolC, NMP + antibiotic) was “Synergistic (Synergy (FICI ≤0.5))”, the FICI (ΔtolC; strain ΔtolC, NMP + antibiotic) was 0.281 and the “MICb Alone” value (ΔtolC; strain ΔtolC, antibiotic alone) was 7.81 µg/mL. The “MICb Combined” value (ΔtolC; strain ΔtolC, antibiotic in combination with NMP) was 1.95 µg/mL, the FICI (ΔtolC; ΔtolC, NMP + antibiotic) was 0.281 and the FICI (wild-type E. coli K-12; K-12, NMP + antibiotic) was 0.375. The Effect (wild-type E. coli K-12; strain K-12, NMP + antibiotic) was “Synergistic (Synergy (FICI ≤0.5))”, the FICI (wild-type E. coli K-12; strain K-12, NMP + antibiotic) was 0.375 and the “MICb Alone” value (wild-type E. coli K-12; strain K-12, antibiotic alone) was 500 µg/mL. The “MICb Combined” value (wild-type E. coli K-12; strain K-12, antibiotic in combination with NMP) was 125 µg/mL, the Effect (ΔtolC-Pore; [5]) was “Additive (additive (FICI >0.5-1.0))” and the FICI (ΔtolC-Pore; [5]) was 0.500. The “MICb Alone” value (ΔtolC-Pore; strain ΔtolC Pore, antibiotic alone) was 1.95 µg/mL, the “MICb Combined” value (ΔtolC-Pore; strain ΔtolC Pore, antibiotic in combination with NMP) was 0.488 µg/mL and the FICI (ΔtolC-Pore; ΔtolC Pore, NMP + antibiotic) was 0.500. For the same molecule, the FICI ([1]; EKO-35 acrBD408A Pore, NMP + antibiotic) was 1.000, the Effect [1, 6] was “— (indifferent (FICI >1.0))” and the FICI [1, 6] was 1.000. The “MICb Combined” value ([1]; strain EKO-35 acrBD408A Pore, antibiotic in combination with NMP) was 0.122 µg/mL, the Effect (wild-type K-12-Pore; strain K-12 Pore, NMP + antibiotic) was “Synergistic (Synergy (FICI ≤0.5))” and the “MICb Alone” value (wild-type K-12-Pore; strain K-12 Pore, antibiotic alone) was 250 µg/mL. The “MICb Combined” value (wild-type K-12-Pore; strain K-12 Pore, antibiotic in combination with NMP) was 31.3 µg/mL, the FICI ([2]; EKO-35 acrB Pore, NMP + antibiotic) was 0.191 and the Effect [2, 7] was “Synergistic (Synergy (FICI ≤0.5))”. The FICI [2, 7] was 0.191, the “MICb Alone” value ([2]; strain EKO-35 acrB Pore, antibiotic alone) was 15.6 µg/mL and the “MICb Combined” value ([2]; strain EKO-35 acrB Pore, antibiotic in combination with NMP) was 2 µg/mL. For the same molecule, the FICI (EKO-35-Pore; EKO-35 Pore, NMP + antibiotic) was 0.508, the Effect (EKO-35-Pore; [8]) was “Additive (additive (FICI >0.5-1.0))” and the FICI (EKO-35-Pore; [8]) was 0.508. The “MICb Alone” value (EKO-35-Pore; strain EKO-35 Pore, antibiotic alone) was 0.488 µg/mL.
